Source: the supplement of paper PMC10307832

Tests used:
Assay in all cases: relative viability (nuclei count vs DMSO), 5 days (fraction); higher = more cells survive
[1] = compound: C1=CC=C2C(=C1)C=CC(=C2SSC3=C(C=CC4=CC=CC=C43)O)O [IPA-3] + CC(=O)c1c(C)c2cnc(Nc3ccc(N4CCNCC4)cn3)nc2n(C2CCCC2)c1=O [Palbociclib] (partner 0.5 µM)
Procedure, shortened: (§1)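 Values are medians from duplicate plates. Each reflects relative viability, defined as the nuclei count of treated wells over that of vehicle wells. Lung cancer cell lines in 1536-well plates were pin-tool dosed one day after seeding with one drug alone or with a fixed anchor-drug dose plus five library-drug doses (not always all listed) in √10 steps, then fixed, stained and imaged at 4× after 5 days.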

[2] = compound: Cc1ccc(-n2nc(C(C)(C)C)cc2NC(=O)Nc2ccc(OCCN3CCOCC3)c3ccccc23)cc1 [Doramapimod] + N=C(N)NC(=N)NCCc1ccccc1 [Phenformin] (partner 250 µM)
Procedure, shortened: as §1

[3] = compound: Cc1ccc(-n2nc(C(C)(C)C)cc2NC(=O)Nc2ccc(OCCN3CCOCC3)c3ccccc23)cc1 [Doramapimod] + O=C(c1cc(Cc2n[nH]c(=O)c3ccccc23)ccc1F)N1CCN(C(=O)C2CC2)CC1 [Olaparib] (partner 8 µM)
Procedure, shortened: as §1

[4] = compound: Cn1c(Nc2ccc(C(F)(F)F)cc2)nc2cc(Oc3ccnc(-c4ncc(C(F)(F)F)[nH]4)c3)ccc21 [RAF265] + N=C(N)NC(=N)NCCc1ccccc1 [Phenformin] (partner 250 µM)
Procedure, shortened: as §1

Cell Line | relative viability ([1]; first compound 0.2 µM) | relative viability ([1]; first compound 0.6325 µM) | relative viability ([1]; first compound 2 µM) | relative viability ([1]; first compound 6.325 µM) | relative viability ([1]; first compound 20 µM) | relative viability ([2]; first compound 0.02 µM) | relative viability ([2]; first compound 0.06325 µM) | relative viability ([2]; first compound 0.2 µM) | relative viability ([2]; first compound 0.6325 µM) | relative viability ([2]; first compound 2 µM) | relative viability ([3]; first compound 0.02 µM) | relative viability ([3]; first compound 0.06325 µM) | relative viability ([3]; first compound 0.2 µM) | relative viability ([3]; first compound 0.6325 µM) | relative viability ([3]; first compound 2 µM) | relative viability ([4]; first compound 0.01 µM) | relative viability ([4]; first compound 0.03162 µM) | relative viability ([4]; first compound 0.1 µM) | relative viability ([4]; first compound 1 µM) | relative viability ([4]; first compound 0.3162 µM)
HCC-827 | 0.559 | 0.475 | 0.484 | 0.53 | 0.568 | 0.418 | 0.416 | 0.376 | 0.432 | 0.286 | 0.766 | 0.596 | 0.6 | 0.679 | 0.396 | 0.431 | 0.444 | 0.41 | 0.398 | –
EMC-BAC-2 | 0.537 | 0.509 | 0.527 | 0.516 | 0.532 | 0.53 | 0.606 | 0.586 | 0.678 | 0.503 | 0.494 | 0.441 | 0.469 | 0.473 | 0.43 | 0.544 | 0.457 | 0.339 | 0.125 | 0.336
NCI-H520 | 0.229 | 0.206 | – | 0.283 | 0.186 | 0.632 | 0.62 | 0.533 | 0.492 | 0.346 | 0.336 | 0.359 | 0.354 | 0.364 | 0.305 | 0.553 | 0.544 | 0.579 | 0.397 | 0.555
NCI-H1755 | 0.464 | 0.488 | 0.422 | 0.43 | 0.44 | 0.577 | 0.596 | 0.6 | 0.541 | 0.559 | 0.865 | 0.85 | 0.847 | 0.811 | 0.829 | 0.612 | 0.59 | 0.571 | 0.432 | 0.459
